Laboratory results taken from patent publication US11353463B2, “Redox-based reagents for methionine bioconjugation” (The Regents of the University of California, priority 2016, dated 2022).

How the values were obtained:
[1] = molecular target: bovine serum albumin (BSA) (Bos taurus, UniProt P02769); assay: ReACT labeling of BSA, CuAAC with Cy3-azide, in-gel fluorescence imaging
Experimental: FIG. 1A Left panel: Acid-base conjugation strategies for cysteine-based protein functionalization; Right panel: Redox-Activated Chemical Tagging (ReACT) strategies for methionine-based protein functionalization. Oxaziridine (Ox) compounds serve as oxidant-sulfimide conjugation product. (B) Model redox conjugation reaction with 25 μM of N-acetyl-L-methionine methyl ester (Si) and 27.5 μM of various oxaziridine compounds as substrates in co-solvent. (C) Number of unique redox conjugation carrying peptide on representative amino acid, namely Met, Lys and Cys by labeling HeLa cell lysate with Ox4 at the final concentration of 1 mM for 10 min. (D) Yield of conjugation reaction was performed with 15 μM of BSA carrying 4 methionine per protein and 100 μM Ox4 at indicated time point as measured by in-gel fluorescence imaging.
ReACT as a method for site-selective methionine conjugation of proteins was evaluated. […] The resulting redox conjugation yield to BSA was analyzed by in-gel fluorescence imaging. […] The reactivity of various alkyne- and azide-containing oxaziridine probes with CaM model protein was assessed (FIG. 2B). […]

[2] = Stability of redox conjugation product sulfimide (NMR); assay type: physicochemical; conditions: salt form under strong acidic condition
Experimental: The reactivity of oxaziridine probes with other biologically relevant amino acid competitors was evaluated. […] HeLa cell lysates were treated with Ox4, trypsin digested, and then analyzed by LC-MS/MS for probe modification on all nucleophilic amino acids using the X!Tandem program^43. […] Finally, the chemical stability of the sulfimide methionine conjugation product was tested, finding that this linkage is resistant to acidic and basic conditions, elevated temperature, as well as treatment with a strong protein disulfide reducing agent such as tris(2-carboxyethyl)phophine (TCEP).
The stability of sulfimides were tested by treatment of sulfimides S2 with 5 mM TCEP or treatment of sulfimides S3 with 1 N HC1, 1 N NaOH or 80° C. in co-solvent (d-MeOD/D2O=1:1). The reactions were monitored by NMR after 1 h and 18 h and the reaction conversions were calculated based on NMR data.

Chain of bovine serum albumin (BSA) (P02769 25-607): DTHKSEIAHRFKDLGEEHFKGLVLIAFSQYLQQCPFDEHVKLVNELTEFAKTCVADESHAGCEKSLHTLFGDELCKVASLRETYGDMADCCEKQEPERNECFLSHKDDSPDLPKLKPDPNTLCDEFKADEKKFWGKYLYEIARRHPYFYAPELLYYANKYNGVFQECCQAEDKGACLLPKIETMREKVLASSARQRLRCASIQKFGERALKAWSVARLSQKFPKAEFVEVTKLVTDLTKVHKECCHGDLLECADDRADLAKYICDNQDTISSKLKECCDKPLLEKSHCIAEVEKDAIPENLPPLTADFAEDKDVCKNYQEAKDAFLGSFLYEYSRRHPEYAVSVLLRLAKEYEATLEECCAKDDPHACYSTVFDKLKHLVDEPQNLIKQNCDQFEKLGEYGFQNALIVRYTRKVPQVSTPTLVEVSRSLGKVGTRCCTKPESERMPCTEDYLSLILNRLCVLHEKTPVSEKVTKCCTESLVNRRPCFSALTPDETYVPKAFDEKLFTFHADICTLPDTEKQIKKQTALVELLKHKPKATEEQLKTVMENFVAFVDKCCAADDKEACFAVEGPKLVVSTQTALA

Compound | redox conjugation yield to BSA ([1]; within 1-2 min, 15 μM BSA, 100 μM Ox4) | labeling of BSA ([1]; within the first 5 s following addition of Ox4) | stability in aqueous solution [2]
C#CCNC(=O)N1OC1c1ccccc1 (stereo not drawn) [Ox4, 3-Phenyl-N-(prop-2-yn-1-yl)-1,2-oxaziridine-2-carboxamide] | > 95% | 50% | –
CCNC(=O)N[S+](C)c1ccccc1.[Cl-] (stereo not drawn) [Ox S4] | – | – | stable in aqueous solution
